# According to patent publication US11802127B2, “3,4-dihydro-2,7-naphthyridine-1,6(2H,7H)-diones as MEK inhibitors” (Pfizer Inc., priority 2021, dated 2023):
# pIC50: −log10 of the molar value. Counter-ions that a name gives are not always drawn.
# How the values were obtained:
# [1] = MDR1 LLC-PK1 and BCRP MDCKII Permeability Assay: permeability coefficient (Papp); type: in vitro ADME; conditions: MDCK, test article 1 μM, 37° C.
# Description: (§1) Both LLC-PK1 and MDR1 transfected LLC-PK1 cells were cultured and plated according to manufacturer's recommendations with the exception that the passage media contained only 2% fetal bovine serum to extend passage time out to seven days.
# BCRP transfected MDCKII canine P-gp knockout cell line was cultured and plated according to manufacturer's recommendations.
# (§2) Both positive and negative controls were used to assess functionality of P-gp or BCRP efflux in the assays. Stock solutions for assay controls and the test article were prepared in DMSO for final test concentrations of 10 and 1 μM, respectively. Final organic concentration in the assay was 1%. All dosing solutions contained 10 μM lucifer yellow to monitor LLC-PK1 or MDCKII cell monolayer integrity.
# (§3) For the apical to basolateral determination (A to B), 75 μL of the test article in transport buffer were added to the apical side of the individual transwells and 250 μL of basolateral media, without compound or lucifer yellow, were added to each well. For the basolateral to apical determination (B to A), 250 μL of test article in transport buffer were added to each well and 75 μL transport buffer, without compound or lucifer yellow, were added to each transwell. All tests were performed in triplicate, and each compound was tested for both apical to basolateral and basolateral to apical transport. The plates were incubated for 2 hours on a Lab-Line Instruments Titer Orbital Shaker (VWR, West Chester, PA) at 50 rpm and 37° C. with 5% CO2. All culture plates were removed from the incubator and 50 μL of media were removed from the apical and basolateral portion of each well and added to 150 μL of 1 μM labetalol in 2:1 acetonitrile (acetonitrile): H2O, v/v.
# (§4) The plates were read using a Molecular Devices (Sunnyvale, CA) Gemini Fluorometer to evaluate the lucifer yellow concentrations at excitation/emission wavelengths of 425/535 nm. These values were accepted when found to be below 2% for apical to basolateral and 5% basolateral to apical flux across the MDR1-transfected LLC-PK1 or BCRP-transfected MDCKII cell monolayers. The plates were sealed and the contents of each well analyzed by LC-MS/MS. The compound concentrations were determined from the ratio of the peak areas of the compound to the internal standard (labetalol) in comparison to the dosing solution.
# (§5) The LC-MS/MS system was comprised of an HTS-PAL autosampler (Leap Technologies, Carrboro, NC), an HP1200 HPLC (Agilent, Palo Alto, CA), and a MDS Sciex 4000 Q Trap system (Applied Biosystems, Foster City, CA). […] The total run time, including re-equilibration, for a single injection was 1.2 minutes. Mass spectrometric detection of the analytes was accomplished using the ion spray positive mode. Analyte responses were measured by multiple reaction monitoring (MRM) of transitions unique to each compound (the protonated precursor ion and selected product ions for each test article and m/z 329 to m/z 162 for labetalol, the internal standard).
# BCRP (hBCRP) = biological target: T1, BCRP (hBCRP) (Homo sapiens, UniProt Q9UNQ0); experiment: Efflux ratio in BCRP transfected MDCKII canine P-gp knockout cells; type: in vitro ADME; conditions: Papp(B−A)/Papp(A−B), read-out: Efflux ratio MDCKII-hBCRP knock-in,canine pg-P KO
# T1 construct: expressed in transfected cells; host or cells: MDCKII (canine kidney) cells, canine P-gp knockout, transfected with BCRP
# T1 sequence (Q9UNQ0 1-655): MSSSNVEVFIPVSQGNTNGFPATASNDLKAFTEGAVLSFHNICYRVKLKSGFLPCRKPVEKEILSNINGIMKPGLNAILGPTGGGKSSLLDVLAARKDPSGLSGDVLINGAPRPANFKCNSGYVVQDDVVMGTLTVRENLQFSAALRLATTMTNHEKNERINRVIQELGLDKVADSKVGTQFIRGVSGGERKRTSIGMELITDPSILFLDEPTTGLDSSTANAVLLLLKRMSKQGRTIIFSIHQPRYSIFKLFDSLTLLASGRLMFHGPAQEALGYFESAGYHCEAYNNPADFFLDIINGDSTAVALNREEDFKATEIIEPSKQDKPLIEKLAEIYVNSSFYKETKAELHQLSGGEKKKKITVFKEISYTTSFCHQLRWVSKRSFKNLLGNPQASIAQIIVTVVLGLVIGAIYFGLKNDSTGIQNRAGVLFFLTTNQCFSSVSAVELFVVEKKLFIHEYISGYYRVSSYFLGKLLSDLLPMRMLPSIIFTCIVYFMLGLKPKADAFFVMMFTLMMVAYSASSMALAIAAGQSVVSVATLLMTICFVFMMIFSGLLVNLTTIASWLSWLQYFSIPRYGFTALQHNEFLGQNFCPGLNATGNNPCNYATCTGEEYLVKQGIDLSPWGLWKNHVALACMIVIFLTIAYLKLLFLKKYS
# How it was run: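 Test article at 1 μM final (1% organic) in A→B and B→A directions across MDCKII P-gp knockout monolayers expressing BCRP, 2 h at 37° C., triplicate; lucifer yellow checked monolayer integrity. Concentrations by LC-MS/MS against labetalol internal standard; efflux ratio = Papp(B−A)/Papp(A−B).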
# [2] = tested on: ERK1/2(Thr202/Tyr204) phosphorylation (MEK-dependent) in A375 cells; experiment: Cellular Phospho-p44/42 MAPK (Erk1/2) (Thr202/Tyr204) Assay; type: cell-based; conditions: Homo sapiens, A-375, 1-hour incubation, pERK1/2 (Thr202/Tyr204) In-Cell Western normalized to GAPDH
# How it was run: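 A375 cells exposed 1 h to 10-point 1:3 dilutions (top 20–1 μM, 0.5% DMSO), then fixed and stained for pERK1/2 (Thr202/Tyr204) by In-Cell Western. Signal normalized to GAPDH per well; DMSO and 1 μM reference inhibitor define 0 and 100% inhibition.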
# P-gp (MDR1) = biological target: T2, P-gp (MDR1) (Homo sapiens, UniProt P08183); experiment: Efflux ratio in MDR1 transfected LLC-PK1 cells; type: in vitro ADME; conditions: pig, Papp(B−A)/Papp(A−B)
# T2 construct: expressed in transfected cells; host or cells: LLC-PK1 (porcine kidney) cells transfected with MDR1
# Description: as §1, §2, §3, §4, §5
# An efflux ratio is calculated from the mean apical to basolateral (A−B) Papp data and basolateral to apical (B−A) Papp data: Efflux ratio=Papp(B−A)/Papp(A−B)
# T2 sequence (P08183 whole entry): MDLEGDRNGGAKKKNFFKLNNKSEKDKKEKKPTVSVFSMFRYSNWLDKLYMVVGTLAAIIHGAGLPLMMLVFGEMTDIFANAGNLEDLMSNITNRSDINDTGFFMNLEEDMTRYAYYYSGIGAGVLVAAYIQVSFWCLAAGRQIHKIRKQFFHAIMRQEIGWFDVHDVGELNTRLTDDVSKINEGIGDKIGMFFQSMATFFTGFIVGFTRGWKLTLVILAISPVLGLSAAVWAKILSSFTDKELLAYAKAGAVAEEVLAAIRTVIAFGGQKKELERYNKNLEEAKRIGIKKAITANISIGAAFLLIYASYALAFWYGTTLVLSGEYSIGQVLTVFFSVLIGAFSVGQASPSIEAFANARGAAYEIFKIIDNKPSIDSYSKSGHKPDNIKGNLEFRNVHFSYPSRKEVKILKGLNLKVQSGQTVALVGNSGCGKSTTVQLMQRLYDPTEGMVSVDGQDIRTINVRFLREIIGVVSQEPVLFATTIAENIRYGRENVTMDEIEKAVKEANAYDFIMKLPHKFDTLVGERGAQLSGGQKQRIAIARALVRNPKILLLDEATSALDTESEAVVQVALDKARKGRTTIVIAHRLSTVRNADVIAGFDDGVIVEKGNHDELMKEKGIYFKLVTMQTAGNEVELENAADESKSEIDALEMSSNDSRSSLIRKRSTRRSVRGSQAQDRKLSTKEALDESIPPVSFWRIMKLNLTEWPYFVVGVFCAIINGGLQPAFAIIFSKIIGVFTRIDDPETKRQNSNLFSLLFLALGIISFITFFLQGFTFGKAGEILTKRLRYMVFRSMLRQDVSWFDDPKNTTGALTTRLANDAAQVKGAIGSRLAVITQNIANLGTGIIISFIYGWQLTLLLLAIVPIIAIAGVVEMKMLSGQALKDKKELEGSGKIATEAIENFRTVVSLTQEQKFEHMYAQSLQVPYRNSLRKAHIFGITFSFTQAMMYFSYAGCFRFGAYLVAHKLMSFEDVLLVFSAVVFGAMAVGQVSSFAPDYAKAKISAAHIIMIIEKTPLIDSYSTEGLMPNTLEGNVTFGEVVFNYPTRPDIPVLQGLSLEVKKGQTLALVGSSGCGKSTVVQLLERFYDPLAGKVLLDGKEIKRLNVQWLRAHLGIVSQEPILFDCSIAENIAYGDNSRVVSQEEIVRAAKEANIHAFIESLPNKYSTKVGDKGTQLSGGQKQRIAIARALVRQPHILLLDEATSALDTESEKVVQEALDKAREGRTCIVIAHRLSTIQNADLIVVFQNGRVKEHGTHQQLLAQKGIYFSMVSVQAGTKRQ
Structure (SMILES),"Papp at 2 h, 1 μM [1]","efflux ratio at 2 h, 1 μM (BCRP (hBCRP))","efflux ratio at 2 h, 1 μM (P-gp (MDR1))",pIC50 [2]
"Cn1c(Nc2ccc(I)cc2F)c2c(c(Cl)c1=O)CCN(OCCO)C2=O [Example 38, 5-chloro-8-((2-fluoro-4-iodophenyl)amino)-2-(2-hydroxyethoxy)-7-methyl-3,4-dihydro-2,7-naphthyridine-1,6(2H,7H)-dione]",246 nm/s,2.9,4.5,8.15
"CCc1ccc(Nc2c3c(c(C)c(=O)n2C)CCN(OCCO)C3=O)c(F)c1 [Example 44, 8-((4-ethyl-2-fluorophenyl)amino)-2-(2-hydroxyethoxy)-5,7-dimethyl-3,4-dihydro-2,7-naphthyridine-1,6(2H,7H)-dione]",330 nm/s,2.7,1.1,7.89
"Cn1c(Nc2ccc(I)cc2F)c2c(cc1=O)CCNC2=O [Example 49, 8-((4-iodo-2-fluorophenyl)amino)-7-methyl-3,4-dihydro-2,7-naphthyridine-1,6(2H,7H)-dione trifluoroacetate]",393 nm/s,1,1.4,8.70
"CCc1ccc(Nc2c3c(cc(=O)n2C)CCNC3=O)c(F)c1 [Example 51, 8-((4-ethyl-2-fluorophenyl)amino)-7-methyl-3,4-dihydro-2,7-naphthyridine-1,6(2H,7H)-dione]",412 nm/s,1.2,1.2,7.59
"Cn1c(Nc2ccc(OC(F)F)cc2F)c2c(cc1=O)CCNC2=O [Example 53, 8-((4-(difluoromethoxy)-2-fluorophenyl)amino)-7-methyl-3,4-dihydro-2,7-naphthyridine-1,6(2H,7H)-dione]",369 nm/s,1.8,1.1,7.52
"CSc1ccc(Nc2c3c(c(C)c(=O)n2C)CCNC3=O)c(F)c1 [Example 55, 8-((2-fluoro-4-(methylthio)phenyl)amino)-5,7-dimethyl-3,4-dihydro-2,7-naphthyrdine-1,6(2H,7H)-dione]",374 nm/s,1.4,1.4,7.55
"CCc1ccc(Nc2c3c(c(C)c(=O)n2C)CCNC3=O)c(F)c1 [Example 56, 8-((4-ethyl-2-fluorophenyl)amino)-5,7-dimethyl-3,4-dihydro-2,7-naphthyridine-1,6(2H,7H)-dione]",321 nm/s,1.1,0.8,7.25

# Continued, in another order:
"Papp at 2 h, 1 μM [1]","efflux ratio at 2 h, 1 μM (BCRP (hBCRP))","efflux ratio at 2 h, 1 μM (P-gp (MDR1))",Structure (SMILES),pIC50 [2]
323 nm/s,3.2,3.9,"Cn1c(Nc2ccc(Br)cc2F)c2c(c(F)c1=O)CCN(OCCO)C2=O [Example 39, 8-((4-bromo-2-fluorophenyl)amino)-5-fluoro-2-(2-hydroxyethoxy)-7-methyl-3,4-dihydro-2,7-naphthyridine-1,6(2H,7H)-dione]",7.21
284 nm/s,1.9,3.6,"Cc1c2c(c(Nc3ccc(I)cc3F)n(C)c1=O)C(=O)N(OCCO)CC2 [Example 40, 8-((2-fluoro-4-iodophenyl)amino)-2-(2-hydroxyethoxy)-5,7-dimethyl-3,4-dihydro-2,7-naphthyridine-1,6(2H,7H)-dione]",8.40
294 nm/s,3.3,2.8,"Cn1c(Nc2ccc(Br)cc2F)c2c(c(Br)c1=O)CCN(OCCO)C2=O [Example 42, 5-bromo-8-((4-bromo-2-fluorophenyl)amino)-2-(2-hydroxyethoxy)-7-methyl-3,4-dihydro-2,7-naphthyridine-1,6(2H,7H)-dione]",6.84
318 nm/s,1.3,2.2,"Cc1c2c(c(Nc3ccc(C4CC4)cc3F)n(C)c1=O)C(=O)N(OCCO)CC2 [Example 45, 8-((4-cyclopropyl-2-fluorophenyl)amino)-2-(2-hydroxyethoxy)-5,7-dimethyl-3,4-dihydro-2,7-naphthyridine-1,6(2H,7H)-dione]",7.70
162 nm/s,1,1.4,"Cc1c2c(c(Nc3ccc(I)cc3F)n(C)c1=O)C(=O)NCC2 [Example 48, 8-((2-fluoro-4-iodophenyl)amino)-5,7-dimethyl-3,4-dihydro-2,7-naphthyridine-1,6(2H,7H)-dione]",8.22
367 nm/s,1.3,1.2,"CSc1ccc(Nc2c3c(cc(=O)n2C)CCNC3=O)c(F)c1 [Example 50, 8-((2-fluoro-4-(methylthio)phenyl)amino)-7-methyl-3,4-dihydro-2,7-naphthyridine-1,6(2H,7H)-dione trifluoroacetate]",7.92
368 nm/s,1.2,1.3,"Cn1c(Nc2ccc(C3CC3)cc2F)c2c(cc1=O)CCNC2=O [Example 52, 8-((4-cyclopropyl-2-fluorophenyl)amino)-7-methyl-3,4-dihydro-2,7-naphthyridine-1,6(2H,7H)-dione]",7.52
318 nm/s,1.2,0.9,"Cc1c2c(c(Nc3ccc(C4CC4)cc3F)n(C)c1=O)C(=O)NCC2 [Example 57, 8-((4-cyclopropyl-2-fluorophenyl)amino)-5,7-dimethyl-3,4-dihydro-2,7-naphthyridine-1,6(2H,7H)-dione]",7.03
